Measurements published in patent US20090221624A1, “4-AMINOQUINOLINE COMPOUNDS FOR TREATING VIRUS-RELATED CONDITIONS” (priority 2005, published 2009).

What was measured:
EBOV minigenome = test: microbe, parasite or virus in culture; assay type: cell-based, Ebola virus; conditions: Zaire ebolavirus; for inhibition at 25 µM: 24 h, read-out: EBOV Inh; for EC50: read-out: EBOV EC50
WNV (WN-hRuPac cells) = test: WNV antiviral activity, WN-hRuPac cells, Renilla luciferase; assay type: cell-based, West Nile virus; conditions: for EC50 / inhibition at 25 µM: West Nile virus; for EC50: Secondary Data, WNV, read-out: WNV EC50; for inhibition at 25 µM: primary screening, 25 μM final concentration, 24 hours, percent inhibition of viral replication, read-out: WNV Inh; for WNV TI: therapeutic index CC50/EC50, WNV
DNG (D2-hRuPac cells) = test: DNG antiviral activity, D2-hRuPac cells, Renilla luciferase; assay type: cell-based, Dengue fever virus; conditions: Dengue virus, secondary screening
RSV minigenome = test: RSV minigenome-dependent β-galactosidase expression assay (RSV β-Gal); assay type: cell-based, respiratory syncytial virus; conditions: for EC50 / inhibition at 25 µM: human respiratory syncytial virus; for EC50: Secondary Data, RSV, read-out: RSV EC50; for inhibition at 25 µM: primary screening, 25 μM final concentration, 24 hours, percent inhibition of viral replication, read-out: RSV Inh; for RSV TI: therapeutic index CC50/EC50, RSV
[1] = test system: HCV replicon (Clone A cells, Huh7, subgenomic hepatits C virus RNA); test: HCV Neo screening assay (HCV replicon, NPTII ELISA); assay type: cell-based, hepatitis C virus; conditions: for inhibition at 25 µM / EC50: Hepatitis C virus, Huh-7; for inhibition at 25 µM: primary screening, 25 μM final concentration, 24 hours, percent inhibition of viral replication, read-out: HCV Inh; for EC50: Secondary Data, HCV; for HCV TI: therapeutic index CC50/EC50, HCV
YFV (YF-hRuPac cells) = test: microbe, parasite or virus in culture; assay type: cell-based, yellow fever virus; conditions: for inhibition at 25 µM / EC50: Yellow fever virus; for inhibition at 25 µM: 24 h, read-out: YFV Inh; for EC50: read-out: YFV EC50
SINV (SR19-F-luc cells) = test: SINV antiviral activity, SR19-F-luc cells, Firefly luciferase; assay type: cell-based; conditions: Sindbis virus; for inhibition at 25 µM: primary screening, 25 μM final concentration, 24 hours, percent inhibition of viral replication, read-out: SINV Inh; for EC50: secondary screening, SR19-F-luc cells

Structure (SMILES) | inhibition at 25 µM (EBOV minigenome) [%] | EC50 (EBOV minigenome) [µM] | EC50 (WNV (WN-hRuPac cells)) [µM] | inhibition at 25 µM (WNV (WN-hRuPac cells)) [%] | EC50 (DNG (D2-hRuPac cells)) [µM] | EC50 (RSV minigenome) [µM] | inhibition at 25 µM (RSV minigenome) [%] | RSV TI (RSV minigenome) | inhibition at 25 µM [1] [%] | YFV TI (YFV (YF-hRuPac cells)) | inhibition at 25 µM (YFV (YF-hRuPac cells)) [%] | EC50 (YFV (YF-hRuPac cells)) [µM] | CC50 (in vitro; DNG CC50) [µM] | CC50 (in vitro; EBOV CC50) [µM] | CC50 (in vitro; RSV CC50) [µM] | CC50 (in vitro; SINV CC50) [µM] | CC50 (in vitro; WNV CC50) [µM] | CC50 (in vitro; YFV CC50) [µM] | inhibition at 25 µM (SINV (SR19-F-luc cells)) [%] | EC50 (SINV (SR19-F-luc cells)) [µM] | further results
CCc1ccccc1Nc1cc(C)nc2c(OC)cccc12 [Compound 24] | 35.3 | 55.8 | 25.6 | 73.9 | 27.7 | 4.5 | 94.7 | 12.86 | 43.7 | 0.77 | 67.3 | ≥ 75 | 57.9 | 57.9 | 57.9 | 57.9 | 57.9 | 57.9 | 64.1 | 16.6 | WNV TI (WNV (WN-hRuPac cells)): 2.26
c1coc(CNc2c3c(nc4ccccc24)CCC3)c1 [Compound 10] | 38.1 | 43.2 | 9.79 | 81.2 | 24.7 | 2.51 | 99.6 | 23.29 | 34.6 | 4.06 | 86.2 | 14.4 | 58.5 | 58.5 | 58.5 | 58.5 | 58.5 | 58.5 | 15.9 | 69.9 | WNV TI (WNV (WN-hRuPac cells)): 5.97; CC50 (in vitro; HCV CC50): 47.6 µM
CCOC(=O)c1cnc2c(OC)cccc2c1NCC(C)O (stereo not drawn) [Compound 69] | 64.4 | 57.6 | 13.7 | 44.6 | 44 | 2.21 | 98.3 | 15.67 | 19.8 | 1.35 | 70.1 | 25.7 | 34.6 | 34.6 | 34.6 | 34.6 | 34.6 | 34.6 | 60.9 | 37.1 | WNV TI (WNV (WN-hRuPac cells)): 2.53; CC50 (in vitro; HCV CC50): ≥ 75 µM
COC(=O)c1ccc(Nc2c3c(nc4ccccc24)CCC3)cc1 [Compound 8] | 4.74 | 54.5 | 59.1 | 49 | 61.5 | 9.7 | 75.5 | 7.73 | 98.9 | 2.91 | 66.8 | 25.8 | ≥ 75 | ≥ 75 | ≥ 75 | ≥ 75 | ≥ 75 | ≥ 75 | 34.9 | 24.2 | WNV TI (WNV (WN-hRuPac cells)): 1.27; EC50 [1]: 0.13 µM; HCV TI [1]: 550.77; CC50 (in vitro; HCV CC50): 71.6 µM
CCOc1ccc2nc(C)cc(Nc3ccc(C)c(Cl)c3)c2c1 [Compound 45] | 96.2 | 75 | 3.17 | 99 | 5.04 | 2.95 | 99.9 | 8.59 | 119 | 11.95 | 100 | 2.12 | 25.3 | 25.3 | 25.3 | 25.3 | 25.3 | 25.3 | 95.7 | 3.23 | WNV TI (WNV (WN-hRuPac cells)): 7.99; EC50 [1]: 4.4 µM; HCV TI [1]: 1.06; CC50 (in vitro; HCV CC50): 4.66 µM
CCOC(=O)c1cnc2c(Cl)cccc2c1NCc1ccco1 [Compound 55] | 72.8 | 10.4 | 13 | 94.9 | 8.53 | 5.46 | 81.5 | 8.85 | 21.9 | 7.96 | 94.3 | 6.07 | 48.3 | 48.3 | 48.3 | 48.3 | 48.3 | 48.3 | 29.1 | ≥ 75 | WNV TI (WNV (WN-hRuPac cells)): 3.72; CC50 (in vitro; HCV CC50): ≥ 75 µM
CCOC(=O)c1cnc2ccc(OC)cc2c1NCc1ccco1 [Compound 29] | 86.4 | 8.75 | 3.36 | 105 | 7.43 | 0.29 | 96.2 | 76.21 | 35.3 | 5.97 | 98.4 | 3.7 | 22.1 | 22.1 | 22.1 | 22.1 | 22.1 | 22.1 | -33.8 | 43 | WNV TI (WNV (WN-hRuPac cells)): 6.58; CC50 (in vitro; HCV CC50): ≥ 75 µM
CCOC(=O)c1cnc2ccccc2c1NCc1ccco1 [Compound 30] | 71 | 12.6 | 4.6 | 93.7 | 12 | 1.45 | 80.3 | 38.18 | -18.1 | 10.07 | 92.5 | 5.5 | 55.4 | 55.4 | 55.4 | 55.4 | 55.4 | 55.4 | -9.95 | ≥ 75 | WNV TI (WNV (WN-hRuPac cells)): 12.04; CC50 (in vitro; HCV CC50): ≥ 75 µM
CCOC(=O)c1cnc2ccc(C)cc2c1Nc1ccc(N2CCOCC2)cc1 [Compound 38] | -36.4 | 75 |  | 36.5 | ≥ 75 | 5.05 | 98.2 | 14.85 | 88.4 | 1.94 | 70.8 | 38.7 | ≥ 75 | ≥ 75 | ≥ 75 | ≥ 75 | ≥ 75 | ≥ 75 | 43.2 | ≥ 75 | EC50 [1]: 9.5 µM; HCV TI [1]: 2; CC50 (in vitro; HCV CC50): 19 µM
Cc1ccc(Nc2cc(C)nc3c2ccc2ccccc23)cc1 [Compound 9] | -17.1 | 61.5 | 30.6 | 33.4 | ≥ 75 | 4.1 | 88.2 | 17.8 | 98.3 | 13.51 | 76.2 | 5.4 | 73 | 73 | 73 | 73 | 73 | 73 | 48.2 | ≥ 75 | WNV TI (WNV (WN-hRuPac cells)): 2.38; EC50 [1]: 1.77 µM; HCV TI [1]: 5.55; CC50 (in vitro; HCV CC50): 9.83 µM
CCOc1ccc2nc(C)cc(Nc3ccc(OC)c(OC)c3)c2c1 [Compound 56] | 89.3 | 47.5 | 3.5 | 95.7 | 8.48 | 3.33 | 99 | 8.36 | 128 | 7.93 | 98.7 | 3.51 | 27.8 | 27.8 | 27.8 | 27.8 | 27.8 | 27.8 | 95.8 | 2.33 | WNV TI (WNV (WN-hRuPac cells)): 7.95; EC50 [1]: 4.56 µM; HCV TI [1]: 1.47; CC50 (in vitro; HCV CC50): 6.69 µM
CCc1ccccc1Nc1c2ccccc2nc2ccccc12 [Compound 2] | 20.1 | 38.7 | 17.8 | 49.6 | 21.3 | 1.3 | 99.8 | 25.33 | 154 | 4.95 | 71.8 | 6.65 | 32.9 | 32.9 | 32.9 | 32.9 | 32.9 | 32.9 | 70.2 | 19.3 | WNV TI (WNV (WN-hRuPac cells)): 1.85; EC50 [1]: 8 µM; HCV TI [1]: 0.77; CC50 (in vitro; HCV CC50): 6.12 µM
